Numbers after ± are expanded uncertainties.
Assay: refractive index (Na D-line) (dimensionless)
Conditions: 293.1 K; 101.33 kPa; Liquid; Standard Abbe refractometry

| refractive index | SMILES |
| --- | --- |
| 1.422 ± 0.0004 | CCCCCCCCCCCC [dodecane] |
| 1.4915 ± 0.0004 | CCCc1ccccc1 [propylbenzene] |
| 1.3803 ± 0.0005 | CCCCn1cc[n+](C)c1.F[P-](F)(F)(F)(F)F [1-butyl-3-methylimidazolium hexafluorophosphate] |
| 1.4289 ± 0.0004 | CCCCCCCCCCCCCC [tetradecane] |
